Key:
[1] = test system: RAW 264.7 cells; assay: LPS-stimulated RAW 264.7 cells: IL-10, COX-2 and iNOS levels; format: cell-based, murine
Procedure: (§1) Changes in levels of the proteins were monitored using Western blotting. Cell lysates and tissue lysates of the distal colon were prepared for Western blot analysis as described previously. To determine the protein concentrations in the lysates, bicinchoninic acid reagent (Thermo Fisher Scientific, Waltham, MA, USA) was used according to the manufacturer’s instructions. SDS-PAGE (10 or 7.5% gels) was used to separate and analyze the proteins in the sample lysates. Anti-cyclooxygenase (COX-2, sc-365374, Santa Cruz Biotechnology, Dallas, TX, USA) and anti-inducible nitric oxide synthase (iNOS) antibodies (sc-7271, Santa Cruz Biotechnology) were used to detect COX-2 and iNOS proteins, respectively. Horseradish peroxidase-conjugated secondary antibodies (Santa Cruz Biotechnology) were used to label the primary antibodies. The protein bands in membranes were visualized using the SuperSignal chemiluminescence substrate (Thermo Fisher Scientific, Waltham, MA, USA). As a loading control, α-tubulin was detected using an anti-α-tubulin antibody (Santa Cruz Biotechnology). Intensity of Western blots was quantified using Image Lab software (version 5.2 build 14, Bio-Rad, Hercules, CA, USA). The mean values (n = 3 for cell experiments, n = 5 for animal experiments) were shown under the blots in figures. Original images of Western blots are shown in Supplementary Data S1.

[2] = test system: DNBS-induced rat colitis; assay: DNBS-induced rat colitis, anti-colitic effects; format: in vivo; details: for colonic damage (CDS) / CINC-3 level in inflamed distal colon / MPO activity in inflamed distal colon / iNOS and COX-2 protein levels in inflamed distal colon: oral once per day for 6 days, tCA 30 mg/kg; for colonic damage (CDS): tCA-GA equivalent to 15 (L) and 30 (H) mg/kg tCA, SSZ 30 mg/kg; for CINC-3 level in inflamed distal colon / MPO activity in inflamed distal colon / iNOS and COX-2 protein levels in inflamed distal colon: tCA-GA L and H
Procedure: For an animal experiment to evaluate the anti-colitic effects of drugs, six groups (n = 5 rats per group) were made and treated via oral gavage as follows: normal group, 1.0 mL of phosphate buffered saline (pH 7.4, PBS); colitis group, 1.0 mL of PBS; tCA-treated colitis group, tCA (30 mg/kg) in 1.0 mL of PBS; tCA-GA-treated colitis group (L), tCA-GA (28 mg/kg, equivalent to 15 mg/kg of tCA) in 1.0 mL of PBS; tCA-GA-treated colitis group (H), tCA-GA (56 mg/kg, equivalent to 30 mg/kg of tCA) in 1.0 mL of PBS; SSZ-treated colitis group, SSZ (30 mg/kg) in 1.0 mL of PBS. For the other experiment to evaluate GPR109A-dependent anti-colitic effects of tCA-GA, five groups (n = 5 rats per group) were made and treated via oral gavage as follows: normal group, 1.0 mL of PBS; colitis group, 1.0 mL of PBS; tCA-GA-treated colitis group, tCA-GA (28 mg/kg) in 1.0 mL of PBS; tCA-GA + MPZ-treated colitis group, tCA-GA (28 mg/kg) and MPZ (2 mg/kg) in 1.0 mL of PBS; MPZ-treated colitis group, MPZ (2 mg/kg) in 1.0 mL of PBS.
DNBS-mediated colitis was induced in rats as described previously. Additionally, 3 days after the induction of colitis, the drugs were administered once per day for 6 days as in Section 2.10. The rats were killed to obtain the inflamed distal colon. The colonic damage score (CDS), assessing pathological state in colon tissue and neighbor organs ascribed to DNBS-induced inflammation, was calculated according to the criteria set previously. For histological evaluation, fixed colon tissues were embedded in paraffin, sections with a thickness of 4 μm were cut and stained with hematoxylin and eosin (H&E). The sections were examined under a light microscope (Olympus BX43, Olympus Co., Tokyo, Japan). Myeloperoxidase (MPO) activity was measured as described previously.
as §1
The distal colon samples (0.1 g) obtained from rats were minced in a potassium phosphate buffer (pH 6.0, 1.0 mL), homogenized using a T10 basic/IKA homogenizer (ULTRA-TURRAX®, Staufen im Breisgau, Germany), and centrifuged at 10,000× g for 10 min at 4 °C. The levels of CINC-3 and IL-10 were determined in the samples using ELISA kits, according to the manufacturer’s instructions.

[3] = Cleavage test with autoclaved cecal contents; format: in vitro ADME, rat; details: up to 24 h
[4] = Chemical stability in pH 1.2 and pH 6.8 buffers; format: physicochemical; details: incubation for up to 10 h
Procedure: Distribution coefficients (log D6.8) of tCA, tCA-AA, and tCA-GA were measured as described previously. The concentrations of drugs were determined using a UV-Vis spectrophotometer (Shimadzu, Tokyo, Japan) at 277 nm, and log D6.8 was calculated using the equation reported previously. The chemical stabilities of tCA-GA and tCA-AA were analyzed in HCl-NaCl buffer (pH 1.2) and pH 6.8 isotonic phosphate buffer, representing the physiological pH of the stomach and small intestine, respectively. […]

[5] = Stability in small intestinal contents; format: in vitro ADME; details: rat small intestinal contents, up to 10 h
Procedure: (§2) Male Sprague–Dawley (SpD) rats (250–260 g) were killed using CO2 gas. The proximal small intestinal, distal small intestinal, and cecal contents were collected separately and suspended in pH 6.8 isotonic phosphate buffer to prepare a 20% w/v suspension. tCA-GA and tCA-AA (10 mM) dissolved in pH 6.8 isotonic phosphate buffer (4 mL) were added to the suspension (4 mL) and incubated at 37 °C. To maintain anaerobic conditions, the collection of cecal contents and incubation of the conjugates in the cecal contents were conducted in a nitrogen gas bag (Sigma-Aldrich, Burlington, MA, USA). At appropriate time intervals, a portion of the mixture (0.5 mL), pipetted using a wide-orifice tip, was centrifuged in a microtube. After acidification (with 1.0 M HCl) of the supernatant (0.3 mL), EA was added and vigorously mixed. The organic layer (0.2 mL) was retrieved and evaporated. The residue, dissolved in the mobile phase (0.2 mL), was filtered and subjected to HPLC analysis. Centrifugation was conducted at 10,000× g for 10 min at 4 °C.

[6] = Distribution coefficient (log D6.8), n-octanol/buffer pH 6.8; format: physicochemical; details: n-octanol/buffer (pH 6.8) system; read-out: distribution coefficient (DC, log D6.8)
Procedure: Distribution coefficients (log D6.8) of tCA, tCA-AA, and tCA-GA were measured as described previously. The concentrations of drugs were determined using a UV-Vis spectrophotometer (Shimadzu, Tokyo, Japan) at 277 nm, and log D6.8 was calculated using the equation reported previously. The chemical stabilities of tCA-GA and tCA-AA were analyzed in HCl-NaCl buffer (pH 1.2) and pH 6.8 isotonic phosphate buffer, representing the physiological pH of the stomach and small intestine, respectively. Each drug (0.1 mM) dissolved in the buffers was incubated for at least 12 h, and change in the concentrations of the drugs was monitored using HPLC analysis.

[7] = test system: Caco-2 cell monolayer; assay: Caco-2 cell monolayer permeability assay; format: in vitro ADME, Human; details: 1.2 mM on apical side, up to 24 h, compared with tCA
Procedure: Caco-2 cells were seeded at 1 × 10^5 cells per insert in Transwell inserts with a pore size of 0.4 μm (SPL Inc., Houston, TX, USA). DMEM, containing 10% FBS and 1% penicillin/streptomycin, was added to the basolateral (well) (1 mL) and apical (insert) compartments (0.2 mL). The cells were grown until the trans-epithelial electrical resistance value (EMD Millipore, Billerica, MA, USA) of the cell monolayer reached 2000 Ω cm^2. After removing the culture medium, tCA and its derivatives (1.2 mM) dissolved in DMEM (0.2 mL) without phenol red and were placed on the apical side of the cell monolayer. At appropriate time intervals, the concentrations of the drugs on the basolateral side filled with DMEM (1.0 mL) were determined using HPLC.

[8] = Conversion of conjugates to tCA in cecal contents under nitrogen; format: in vitro ADME; details: rat cecal contents under nitrogen
Procedure: as §2

[9] = RAW 264.7, LPS, MPZ 100 µM with tCA
[10] = tCA-GA 28 mg/kg oral once per day for 6 days (MPZ experiment)

stability in autoclaved cecal contents [3]	change in concentration in buffers (pH 1.2, 6.8) [4]	change in concentration in small intestinal contents [5]	logD [6]	Compound	colonic damage (CDS) [2]	CINC-3 level in inflamed distal colon [2]	MPO activity in inflamed distal colon [2]	iNOS and COX-2 protein levels in inflamed distal colon [2]	permeation through the Caco-2 cell monolayer [7]	other results
–	–	–	–	C[N+]1(C)CCCC(OC(=O)C(O)(c2ccccc2)c2ccccc2)C1 (centres unmarked) [MPZ, mepenzolate, reference compound]	–	–	–	–	–	effect of MPZ on tCA suppression of COX-2 and iNOS [1, 9]: undermined the suppressive effects of tCA; effect of MPZ on tCA-increased IL-10 level [1, 9]: significantly suppressed by MPZ; inflammatory state after single treatment ([2]; MPZ 2 mg/kg alone, oral, 6 days): inflammatory state similar to that induced by the DNBS control; effect of co-administered MPZ on colonic damage and inflammation ([2]; MPZ 2 mg/kg co-administered with tCA-GA 28 mg/kg, oral, 6 days): significantly compromised the beneficial effects of tCA-GA; effect of co-administered MPZ on IL-10 level in inflamed colon ([2]; MPZ 2 mg/kg combined with tCA-GA 28 mg/kg, oral, 6 days): significantly suppressed the increase in the levels of IL-10
–	–	–	–	O=C(O)c1cc(/N=N/c2ccc(S(=O)(=O)Nc3ccccn3)cc2)ccc1O [SSZ, sulfasalazine, reference compound]	tCA was as effective as SSZ	–	–	–	–	–
–	–	–	–	O=C(O)/C=C/c1ccccc1 [tCA, trans-cinnamic acid]	ameliorated colonic damage	lowered	lowered MPO activity	lowered	–	LPS-induced COX-2 and iNOS protein levels ([1]; RAW 264.7, LPS 24 h, tCA pretreatment 1 h): reduced the levels of COX-2 and iNOS; IL-10 level in cell culture supernatant ([1]; RAW 264.7, LPS, tCA 2 mM / 5 mM): increased the level of IL-10
remained intact for up to 24 h	no notable changes in the concentrations	no notable changes in the concentrations	-0.61	O=C(O)C[C@H](NC(=O)/C=C/c1ccccc1)C(=O)O [tCA-AA, N-Cinnamoyl-L-Aspartic Acid]	–	–	–	–	substantially delayed the permeation of tCA through the cell monolayer	–
remained intact for up to 24 h	no notable changes in the concentrations	no notable changes in the concentrations	-0.98	O=C(O)CC[C@H](NC(=O)/C=C/c1ccccc1)C(=O)O [tCA-GA, N-Cinnamoyl-L-Glutamic Acid]	significantly more effective than tCA at mitigating pathological changes	lowered	lowered MPO activity	lowered	substantially delayed the permeation of tCA through the cell monolayer	conversion rate to tCA [8]: higher than that of tCA-AA to tCA; H&E staining, mucosal layer of distal colon ([2]; both doses of tCA-GA, greater than tCA and SSZ): recovered the mucosal layer of the distal colon; IL-10 level in inflamed colon ([2]; first experiment (Supplementary Data S6), more effective than oral tCA): increased the levels of IL-10 in the inflamed colon; IL-10 level in inflamed colon [2, 10]: increased the levels of IL-10 in the inflamed colon; colonic damage incl. colon length shortening [2, 10]: substantially alleviates colonic damage; colonic inflammation (MPO activity, CINC-3, iNOS, COX-2 in distal colon) [2, 10]: markedly suppressed

Reference: paper PMC9865397, “Colon-Targeted Trans-Cinnamic Acid Ameliorates Rat Colitis by Activating GPR109A” (Pharmaceutics, 2022)
